The source made the active and inactive calls. No cut-off for these calls is given here.
Key:
[1] = target: Methylcytosine dioxygenase TET1 (Homo sapiens) (UniProt Q8NFU7); experiment: Inhibition of recombinant human TET1 catalytic domain assessed as reduction of 5hmC formation at 125 uM using hemi-methylated synthetic oligomer 5'-AATTAGAA[5meC]GCTCCTT-3' as substrate incubated for 30 mins in presence of CuSO4 by LC-MS method
[2] = target: Methylcytosine dioxygenase TET1 (Homo sapiens) (UniProt Q8NFU7); experiment: Inhibition of recombinant human TET1 assessed as reduction of 5hmC formation at 0.01 to 125 uM incubated for 30 mins in presence of 1 uM CuSO4 by HPLC-ESI-MS/MS method; conditions: dose 0.01-125 µM
[3] = target: Methylcytosine dioxygenase TET1 (Homo sapiens) (UniProt Q8NFU7); experiment: Inhibition of recombinant human TET1 catalytic domain assessed as reduction of 5hmC formation at 25 uM incubated for 30 mins by HPLC-ESI-MS/MS method
[4] = target: Methylcytosine dioxygenase TET1 (Homo sapiens) (UniProt Q8NFU7); experiment: Inhibition of recombinant human TET1 assessed as reduction of 5hmC formation at 0.01 to 125 uM incubated for 30 mins in presence of 4 uM CuSO4 by HPLC-ESI-MS/MS method; conditions: dose 0.01-125 µM
[5] = target: Methylcytosine dioxygenase TET1 (Homo sapiens) (UniProt Q8NFU7); experiment: Inhibition of recombinant human TET1 catalytic domain assessed as reduction of 5hmC formation at 125 uM using hemi-methylated synthetic oligomer 5'-AATTAGAA[5meC]GCTCCTT-3' as substrate incubated for 30 mins by LC-MS method
[6] = target: Methylcytosine dioxygenase TET2 (Homo sapiens) (UniProt Q6N021); experiment: Inhibition of recombinant human TET2 catalytic domain assessed as reduction of 5hmC formation at 125 uM using hemi-methylated synthetic oligomer 5'-AATTAGAA[5meC]GCTCCTT-3' as substrate incubated for 30 mins by LC-MS method

Sequence of Methylcytosine dioxygenase TET1 (Homo sapiens) (Q8NFU7 whole entry, the tested form may be a part): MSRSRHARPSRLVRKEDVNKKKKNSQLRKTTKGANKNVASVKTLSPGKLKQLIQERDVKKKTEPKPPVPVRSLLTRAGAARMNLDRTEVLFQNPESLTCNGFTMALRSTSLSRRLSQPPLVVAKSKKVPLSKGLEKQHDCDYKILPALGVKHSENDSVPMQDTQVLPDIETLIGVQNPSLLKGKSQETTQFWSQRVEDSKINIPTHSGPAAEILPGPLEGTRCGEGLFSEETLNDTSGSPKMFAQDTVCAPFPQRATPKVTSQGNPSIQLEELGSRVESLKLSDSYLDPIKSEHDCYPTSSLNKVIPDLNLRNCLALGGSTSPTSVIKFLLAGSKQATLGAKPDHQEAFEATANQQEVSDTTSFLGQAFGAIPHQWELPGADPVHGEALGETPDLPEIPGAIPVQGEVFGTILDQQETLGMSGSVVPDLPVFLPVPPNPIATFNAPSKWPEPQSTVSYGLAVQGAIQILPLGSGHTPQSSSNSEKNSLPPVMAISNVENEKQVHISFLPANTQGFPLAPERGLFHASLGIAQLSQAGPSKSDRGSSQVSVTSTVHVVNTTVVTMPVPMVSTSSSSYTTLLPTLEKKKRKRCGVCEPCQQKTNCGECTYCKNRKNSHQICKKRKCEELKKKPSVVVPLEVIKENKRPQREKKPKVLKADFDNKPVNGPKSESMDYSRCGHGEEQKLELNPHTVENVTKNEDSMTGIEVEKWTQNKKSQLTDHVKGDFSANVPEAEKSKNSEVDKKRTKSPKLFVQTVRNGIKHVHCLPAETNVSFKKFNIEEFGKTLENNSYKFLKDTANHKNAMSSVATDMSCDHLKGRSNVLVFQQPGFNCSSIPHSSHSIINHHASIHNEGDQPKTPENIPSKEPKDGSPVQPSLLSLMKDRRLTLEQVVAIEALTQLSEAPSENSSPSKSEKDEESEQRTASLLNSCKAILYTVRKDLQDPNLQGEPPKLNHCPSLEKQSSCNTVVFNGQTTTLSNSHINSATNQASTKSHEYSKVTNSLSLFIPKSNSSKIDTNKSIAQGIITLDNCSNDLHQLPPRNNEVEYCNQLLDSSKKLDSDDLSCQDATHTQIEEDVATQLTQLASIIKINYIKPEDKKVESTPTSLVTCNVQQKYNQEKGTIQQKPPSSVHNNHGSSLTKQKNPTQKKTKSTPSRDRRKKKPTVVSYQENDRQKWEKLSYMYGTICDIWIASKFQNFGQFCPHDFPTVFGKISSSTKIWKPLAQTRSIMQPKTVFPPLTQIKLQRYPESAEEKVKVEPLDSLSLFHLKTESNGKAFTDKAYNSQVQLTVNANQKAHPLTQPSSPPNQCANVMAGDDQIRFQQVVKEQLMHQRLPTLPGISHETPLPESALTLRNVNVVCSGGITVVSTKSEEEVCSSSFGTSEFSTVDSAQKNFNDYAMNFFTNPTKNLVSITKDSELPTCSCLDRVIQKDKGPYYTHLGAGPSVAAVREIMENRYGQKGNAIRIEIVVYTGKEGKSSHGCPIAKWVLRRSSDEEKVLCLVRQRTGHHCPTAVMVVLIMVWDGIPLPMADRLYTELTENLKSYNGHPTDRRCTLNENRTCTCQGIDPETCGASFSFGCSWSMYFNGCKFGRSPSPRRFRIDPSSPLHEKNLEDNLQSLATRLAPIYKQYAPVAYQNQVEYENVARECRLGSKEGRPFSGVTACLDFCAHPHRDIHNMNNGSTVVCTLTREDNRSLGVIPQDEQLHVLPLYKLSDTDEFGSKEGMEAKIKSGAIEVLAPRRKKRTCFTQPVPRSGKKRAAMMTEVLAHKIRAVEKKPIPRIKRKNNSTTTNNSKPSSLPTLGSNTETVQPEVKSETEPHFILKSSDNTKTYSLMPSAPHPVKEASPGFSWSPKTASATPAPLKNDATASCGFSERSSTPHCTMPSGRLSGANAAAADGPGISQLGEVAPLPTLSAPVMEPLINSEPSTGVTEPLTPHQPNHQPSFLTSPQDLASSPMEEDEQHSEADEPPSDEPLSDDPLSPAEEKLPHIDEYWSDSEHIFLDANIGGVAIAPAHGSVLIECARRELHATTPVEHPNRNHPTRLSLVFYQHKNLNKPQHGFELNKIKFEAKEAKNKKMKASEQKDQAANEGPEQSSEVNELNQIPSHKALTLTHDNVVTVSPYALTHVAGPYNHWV

inhibition [1]	inhibition [2]	inhibition [3]	inhibition [4]	inhibition [5]	inhibition [6]	Compound
Active	Active	Active	Active	Active		Nc1nc(=O)n(-c2cccc(-c3ccccc3)c2)cc1Cl
		Active		Active	Active	CUPRIC SULFATE

— ChEMBL document CHEMBL5131531, “Small Molecule Inhibitors of TET Dioxygenases: Bobcat339 Activity Is Mediated by Contaminating Copper(II)” (ACS Med Chem Lett, 2022)
